The source of these data is the supplement of paper PMC10307832.

What all share (experiment): relative viability (nuclei count vs DMSO), 5 days (fraction); higher = more cells survive
Compound in experiment [1]: COc1ccc(-c2ccc3c(N4CCOC[C@@H]4C)nc(N4CCOC[C@@H]4C)nc3n2)cc1CO [AZD8055] + COc1cc2c(Oc3ccc(NC(=O)C4(C(=O)Nc5ccc(F)cc5)CC4)cc3F)ccnc2cc1OCCCN1CCOCC1 [Foretinib] (partner 0.25 µM)
An outline of the steps:
(§1)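 Nuclei were stained with Hoechst during a one-step fixation (final 0.05% Triton X-100, 1% formaldehyde, 1 ug/ml Hoechst) carried out 5 days after dosing, then counted on 4× images. The cells, lung cancer lines in 1536-well plates, had been dosed by pin tool the day after seeding with one drug alone or a fixed anchor-drug dose plus five library-drug doses (not always all listed) in √10 steps. Relative viability is the nuclei count in treated wells divided by that in vehicle wells, and each value is the median of duplicate plates.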

Compound in experiment [2]: COc1ccc(-c2ccc3c(N4CCOC[C@@H]4C)nc(N4CCOC[C@@H]4C)nc3n2)cc1CO [AZD8055] + Cc1nc(NC(=O)N2CCC[C@H]2C(N)=O)sc1-c1ccnc(C(C)(C)C(F)(F)F)c1 [Alpelisib] (partner 2 µM)
An outline of the steps: as §1

Compound in experiment [3]: COc1ccc(-c2ccc3c(N4CCOC[C@@H]4C)nc(N4CCOC[C@@H]4C)nc3n2)cc1CO [AZD8055] + Nc1nc2[nH]cc(CCc3ccc(C(=O)N[C@@H](CCC(=O)O)C(=O)O)cc3)c2c(=O)[nH]1 [Pemetrexed] (partner 0.2 µM)
The gist of the method:
as §1

Compound in experiment [4]: COc1ccc(-c2ccc3c(N4CCOC[C@@H]4C)nc(N4CCOC[C@@H]4C)nc3n2)cc1CO [AZD8055] + O=C(c1cc(Cc2n[nH]c(=O)c3ccccc23)ccc1F)N1CCN(C(=O)C2CC2)CC1 [Olaparib] (partner 8 µM)
An outline of the steps: as §1

Regarding SK-LU-1, the relative viability was 0.784 in experiment [1] (first compound 0.01 µM); 0.627 in experiment [1] (first compound 0.03162 µM); 0.427 in experiment [1] (first compound 0.1 µM); 0.258 in experiment [1] (first compound 0.3162 µM); 0.212 in experiment [1] (first compound 1 µM); 1.03 in experiment [2] (first compound 0.01 µM). In addition, the relative viability in experiment [2] (first compound 0.03162 µM) turned out to be 0.643; in experiment [2] (first compound 0.1 µM), 0.384; in experiment [2] (first compound 0.3162 µM) it was 0.687; in experiment [2] (first compound 1 µM) it was 0.342; in experiment [3] (first compound 0.01 µM), 1.09; in experiment [3] (first compound 0.03162 µM) it was 0.874. In addition, the relative viability was 0.69 in experiment [3] (first compound 0.1 µM); 0.444 in experiment [3] (first compound 0.3162 µM); 0.371 in experiment [3] (first compound 1 µM); 0.442 in experiment [4] (first compound 0.01 µM); 0.412 in experiment [4] (first compound 0.03162 µM); 0.345 in experiment [4] (first compound 0.1 µM). The relative viability in experiment [4] (first compound 0.3162 µM) was found to be 0.305; in experiment [4] (first compound 1 µM), 0.254.

Regarding BEN, the relative viability was 0.533 in experiment [1] (first compound 0.01 µM); 0.463 in experiment [1] (first compound 0.03162 µM); 0.389 in experiment [1] (first compound 0.1 µM); 0.284 in experiment [1] (first compound 0.3162 µM); 0.284 in experiment [1] (first compound 1 µM); 1.06 in experiment [2] (first compound 0.01 µM). Besides, the relative viability is 0.593 in experiment [2] (first compound 0.03162 µM); 0.391 in experiment [2] (first compound 0.1 µM); 0.341 in experiment [2] (first compound 0.3162 µM); 0.338 in experiment [2] (first compound 1 µM); 0.815 in experiment [3] (first compound 0.01 µM); 0.589 in experiment [3] (first compound 0.03162 µM). The relative viability in experiment [3] (first compound 0.1 µM) came to 0.514; in experiment [3] (first compound 0.3162 µM), 0.421; in experiment [3] (first compound 1 µM), 0.449; in experiment [4] (first compound 0.01 µM), 1.15; in experiment [4] (first compound 0.03162 µM) it was 0.884; in experiment [4] (first compound 0.1 µM) it was 0.658. Besides, the relative viability is 0.455 in experiment [4] (first compound 0.3162 µM) and 0.518 in experiment [4] (first compound 1 µM).

Take LC-2-ad: the relative viability was determined as 1.05 in experiment [1] (first compound 0.01 µM); 0.855 in experiment [1] (first compound 0.03162 µM); 0.652 in experiment [1] (first compound 0.1 µM); 0.58 in experiment [1] (first compound 0.3162 µM); 0.469 in experiment [1] (first compound 1 µM); 0.841 in experiment [2] (first compound 0.01 µM). The relative viability in experiment [2] (first compound 0.03162 µM) came to 0.827; in experiment [2] (first compound 0.1 µM) it was 0.697; in experiment [2] (first compound 0.3162 µM), 0.42; in experiment [2] (first compound 1 µM) it was 0.402; in experiment [3] (first compound 0.01 µM) it was 0.281; in experiment [3] (first compound 0.03162 µM), 0.277. For the same cell line, the relative viability came out at 0.307 in experiment [3] (first compound 0.1 µM); 0.289 in experiment [3] (first compound 0.3162 µM); 0.278 in experiment [3] (first compound 1 µM); 0.748 in experiment [4] (first compound 0.01 µM); 0.778 in experiment [4] (first compound 0.03162 µM); 0.759 in experiment [4] (first compound 0.1 µM). For the same cell line, the results for the relative viability in experiment [4] (first compound 0.3162 µM) and in experiment [4] (first compound 1 µM) were 0.835 and 0.704, respectively.

Turning to COR-L23, the relative viability in experiment [1] (first compound 0.01 µM) stood at 1.24; in experiment [1] (first compound 0.03162 µM), 0.893; in experiment [1] (first compound 0.1 µM) it was 0.822; in experiment [1] (first compound 0.3162 µM) it was 0.353; in experiment [1] (first compound 1 µM) it was 0.233; in experiment [2] (first compound 0.01 µM), 0.837. Besides, the relative viability was 0.551 in experiment [2] (first compound 0.03162 µM); 0.395 in experiment [2] (first compound 0.1 µM); 0.155 in experiment [2] (first compound 0.3162 µM); 0.154 in experiment [2] (first compound 1 µM); 0.204 in experiment [3] (first compound 0.01 µM); 0.194 in experiment [3] (first compound 0.03162 µM). Further, the relative viability was found to be 0.186 in experiment [3] (first compound 0.1 µM); 0.177 in experiment [3] (first compound 0.3162 µM); 0.178 in experiment [3] (first compound 1 µM); 0.408 in experiment [4] (first compound 0.01 µM); 0.42 in experiment [4] (first compound 0.03162 µM); 0.277 in experiment [4] (first compound 0.1 µM). The values for the relative viability in experiment [4] (first compound 0.3162 µM) and in experiment [4] (first compound 1 µM) were 0.143 and 0.141, respectively.

In the case of RERF-LC-KJ, the relative viability is 0.963 in experiment [1] (first compound 0.01 µM); 0.754 in experiment [1] (first compound 0.03162 µM); 0.771 in experiment [1] (first compound 0.1 µM); 0.535 in experiment [1] (first compound 0.3162 µM); 0.392 in experiment [1] (first compound 1 µM); 0.77 in experiment [2] (first compound 0.01 µM). For the same cell line, the relative viability in experiment [2] (first compound 0.03162 µM) came out at 0.576; in experiment [2] (first compound 0.1 µM) it was 0.552; in experiment [2] (first compound 0.3162 µM), 0.4; in experiment [2] (first compound 1 µM) it was 0.442; in experiment [3] (first compound 0.01 µM), 0.51; in experiment [3] (first compound 0.03162 µM), 0.499. Moreover, the relative viability in experiment [3] (first compound 0.1 µM) amounted to 0.428; in experiment [3] (first compound 0.3162 µM) it was 0.396; in experiment [3] (first compound 1 µM), 0.373; in experiment [4] (first compound 0.01 µM) it was 0.963; in experiment [4] (first compound 0.03162 µM) it was 1.08; in experiment [4] (first compound 0.1 µM) it was 0.669. Further, the relative viability turned out to be 0.429 in experiment [4] (first compound 0.3162 µM) and 0.404 in experiment [4] (first compound 1 µM).

In the case of NCI-H1915, the relative viability is 1.12 in experiment [1] (first compound 0.01 µM); 1.04 in experiment [1] (first compound 0.03162 µM); 1.01 in experiment [1] (first compound 0.1 µM); 0.574 in experiment [1] (first compound 0.3162 µM); 0.527 in experiment [1] (first compound 1 µM); 1.12 in experiment [2] (first compound 0.01 µM). In addition, the relative viability in experiment [2] (first compound 0.03162 µM) is 0.941; in experiment [2] (first compound 0.1 µM), 0.996; in experiment [2] (first compound 0.3162 µM), 0.645; in experiment [2] (first compound 1 µM), 0.455; in experiment [3] (first compound 0.01 µM), 0.52; in experiment [3] (first compound 0.03162 µM), 0.5. The relative viability turned out to be 0.507 in experiment [3] (first compound 0.1 µM); 0.419 in experiment [3] (first compound 0.3162 µM); 0.372 in experiment [3] (first compound 1 µM); 0.257 in experiment [4] (first compound 0.01 µM); 0.262 in experiment [4] (first compound 0.03162 µM); 0.289 in experiment [4] (first compound 0.1 µM). Moreover, the relative viability in experiment [4] (first compound 0.3162 µM) is 0.238; in experiment [4] (first compound 1 µM), 0.204.

For NCI-H596, the relative viability in experiment [1] (first compound 0.01 µM) was 0.79; in experiment [1] (first compound 0.03162 µM) it was 0.551; in experiment [1] (first compound 0.1 µM), 0.474; in experiment [1] (first compound 0.3162 µM), 0.319; in experiment [1] (first compound 1 µM) it was 0.335; in experiment [2] (first compound 0.01 µM) it was 0.479. Also, the relative viability turned out to be 0.385 in experiment [2] (first compound 0.03162 µM); 0.348 in experiment [2] (first compound 0.1 µM); 0.348 in experiment [2] (first compound 0.3162 µM); 0.324 in experiment [2] (first compound 1 µM); 0.452 in experiment [3] (first compound 0.01 µM); 0.456 in experiment [3] (first compound 0.03162 µM). Also, the relative viability in experiment [3] (first compound 0.1 µM) came out at 0.409; in experiment [3] (first compound 0.3162 µM), 0.402; in experiment [3] (first compound 1 µM), 0.443; in experiment [4] (first compound 0.01 µM), 0.752; in experiment [4] (first compound 0.03162 µM), 0.615; in experiment [4] (first compound 0.1 µM), 0.459. The values for the relative viability in experiment [4] (first compound 0.3162 µM) and in experiment [4] (first compound 1 µM) were 0.452 and 0.514, respectively.
